The text below walks through data of US20140179624A1, “CYTOPROTECTIVE DERIVATIVES OF AVICIN D AND METHODS OF MAKING AND USING THEREOF” (Research Development Foundation, priority 2012, published 2014).

The subject of one data set is 3T3-L1 cells. The experiment in a line: Adipogenesis in 3T3-L1 cells. It counts as cell-based.
The test system of data set [1] is NF-κB. Particulars: redox-dependant manner; cited from earlier work.
In data set [2] the test system is NF-κB. The experiment in a line: TNF-induced p(IL6-κB)350hu.IL6P-Luc luciferase reporter in HEK 293T cells with and without GR (FIG. 3). The class given is cell-based. The text has this: FIG. 3 is graph showing the expression of glucocorticoid receptor (GR) in HEK293T cells with and without GR.
However, TNF-induced activation of p(IL6-κB)350hu.IL6P-Luc was inhibited by both avicin D and Dex in HEK 293T cells transfected with GR (FIG. 3). […] This observation supports the notion that avicins are not able to induce GR transactivation.
A general note: A reporter such as luciferase makes a cellular process visible.

The test system of data set [3] is NF-E2-related factor 2 (Nrf2). Particulars: redox-dependant manner; cited from earlier work.
The target in data set [4] is T1, glucocorticoid receptor (GR) (Homo sapiens, UniProt P04150).
T1 sequence (P04150 1-777): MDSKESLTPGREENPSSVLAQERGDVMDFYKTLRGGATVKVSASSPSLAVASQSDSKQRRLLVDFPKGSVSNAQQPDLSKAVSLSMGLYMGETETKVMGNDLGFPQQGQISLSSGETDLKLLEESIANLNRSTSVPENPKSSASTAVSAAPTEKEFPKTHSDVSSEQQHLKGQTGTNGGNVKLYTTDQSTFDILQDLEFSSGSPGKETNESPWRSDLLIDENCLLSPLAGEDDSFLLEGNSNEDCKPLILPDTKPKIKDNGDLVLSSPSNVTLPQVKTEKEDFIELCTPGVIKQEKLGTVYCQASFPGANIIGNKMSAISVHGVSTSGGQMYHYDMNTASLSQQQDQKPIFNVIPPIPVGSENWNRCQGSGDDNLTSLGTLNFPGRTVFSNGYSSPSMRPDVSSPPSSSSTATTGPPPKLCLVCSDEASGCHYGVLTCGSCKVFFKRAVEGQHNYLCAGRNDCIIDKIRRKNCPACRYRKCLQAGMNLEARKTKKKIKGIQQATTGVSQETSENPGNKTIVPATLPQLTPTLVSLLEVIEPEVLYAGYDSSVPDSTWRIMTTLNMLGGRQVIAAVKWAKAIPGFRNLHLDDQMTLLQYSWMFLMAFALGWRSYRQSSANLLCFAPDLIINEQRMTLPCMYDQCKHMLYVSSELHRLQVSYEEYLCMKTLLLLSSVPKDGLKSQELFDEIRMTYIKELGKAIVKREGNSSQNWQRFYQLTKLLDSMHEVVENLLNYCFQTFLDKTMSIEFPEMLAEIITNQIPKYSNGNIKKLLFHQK
The experiment in a line: Phosphorylation of GR Ser-211 (FIG. 4). The class given is cell-based. Particulars: even after 16 hours.

The subject of a further data set is IL-6. Description: Expression of constitutive and TNF-induced IL-6 (FIG. 2B). It counts as cell-based.
The test system of another data set is human preadipocytes. Description: Differentiation of human preadipocytes to mature adipocytes. The class given is cell-based.
The next data set relates to cell cytotoxicity. Particulars: screen of Acacia victoriae compounds; U.S. Pat. No. 6,444,233; cited from earlier work.
Data set [5] deals with NF-κB. Description: Inhibition of NF-κB activation (FIG. 2A). It counts as cell-based. Particulars: compared with dexamethasone.
The test system of the next data set is chemotaxis. The experiment in a line: Inhibition of chemotaxis. Particulars: preliminary data. It counts as cell-based. From the text:
The compositions described herein contain an effective amount of the one or more avicin derivatives. The amount to be administered can be readily determined by the attending physician based on a variety of factors including, but not limited to, age of the patient, weight of the patient, disease or disorder to be treated, presence of a pre-existing condition, and dosage form to be administered (e.g., immediate release versus modified release dosage form). Typically, the effective amount is from about 0.1 mg/kg/day to about 100 mg/kg/day, more preferably from 0.1 mg/kg/day to 50 mg/kg/day, more preferably from 0.1 mg/kg/day to 25 mg/kg/day, and most preferably from 0.1 mg/kg/day to 10 mg/kg/day. Dosages greater or less than this may be administered depending on the diseases or disorder to be treated.

Take `C=C[C@](C)(O)CC/C=C(\CO)C(=O)O[C@H]1[C@H](O)[C@@H](O)[C@H](O[C@@](C)(C=C)CC/C=C(\CO)C(=O)O[C@H]2C[C@]3(C(=O)O[C@@H]4O[C@H](CO)[C@@H](O)[C@H](O)[C@H]4O[C@@H]4O[C@@H](C)[C@H](O[C@@H]5O[C@@H](CO)[C@H](O)[C@H]5O)[C@@H](O[C@@H]5O[C@H](CO)[C@@H](O)[C@H](O)[C@H]5O)[C@H]4O)[C@H](O)C[C@]4(C)C(=CC[C@@H]5[C@@]6(C)CC[C@H](O[C@@H]7O[C@H](CO[C@@H]8O[C@H](C)[C@H](O)[C@H](O)[C@H]8O[C@@H]8OC[C@@H](O)[C@H](O)[C@H]8O)[C@@H](O)[C@H](O)[C@H]7NC(C)=O)C(C)(C)[C@@H]6CC[C@]54C)[C@@H]3CC2(C)C)O[C@@H]1C` [Avicin D]: in the data set with 3T3-L1 cells, the “PKA-mediated CREB activity” value is reported as “inhibited PKA-mediated CREB activity”; the “adipolysis and adipocyte apoptosis” value is given as “did not affect”; the preadipocyte differentiation result was “suppressed preadipocyte differentiation”. Further, in the data set on 3T3-L1 cells (3T3-L1 cells), the adipogenesis result is on record as “inhibit adipogenesis” and the intracellular triglyceride level entry was “reduce intracellular triglyceride level in a dose-dependent manner”. In the data set on 3T3-L1 cells (in adipocytes), the “expression and secretion of adiponectin” value was “increased the expression and secretion of adiponectin”. Besides, the NF-κB inhibition result in the data set with NF-κB [1] is “inhibit NF-κB”. Besides, the “TNF-induced activation of p(IL6-κB)350hu.IL6P-Luc” value with NF-κB [2] (HEK 293T cells transfected with GR) is on record as “inhibited”. For the same compound, in the data set on NF-κB [2] (wild type HEK 293T cells (without GR)), the luciferase activity entry is given as “neither avicin D nor dexamethasone had an effect”. The Nrf2 activation entry in [3] is “activate NF-E2-related factor 2 (Nrf2)”. Moreover, the “phosphorylation of Ser-211” value in [4] was “does not enhance phosphorylation of Ser-211”. Further, in the data set on IL-6, the “expression of constitutive and TNF-induced IL-6” value was “suppresses the expression of both constituitive and TNF-induced IL-6”. Besides, in the data set on human preadipocytes, the “differentiation of human preadipocytes to mature adipocytes” value is “inhibited the differentiation of human preadipocytes to mature adipocytes” and the intracellular triglyceride levels entry is reported as “reduced intracellular triglyceride levels”. The “induction of cell cytotoxicity” value in the data set on cell cytotoxicity was “significant activity”. Further, the “activation of NF-κB” value in the data set on NF-κB [5] is reported as “inhibits activation of NF-κB in a similar manner to dexamethasone”. Also, the inhibition of chemotaxis result in the data set with chemotaxis is “effective at inhibiting chemotaxis at picomolar and nanomolar concentrations”.
With `C=C[C@](C)(O)CC/C=C(\C)C(=O)O[C@H]1[C@H](O)[C@@H](O)[C@H](O[C@@](C)(C=C)CC/C=C(\CO)C(=O)O[C@H]2C[C@]3(C(=O)O[C@@H]4O[C@H](CO)[C@@H](O)[C@H](O)[C@H]4O[C@@H]4O[C@@H](C)[C@H](O[C@@H]5O[C@@H](CO)[C@H](O)[C@H]5O)[C@@H](O[C@@H]5O[C@H](CO)[C@@H](O)[C@H](O)[C@H]5O)[C@H]4O)[C@H](O)C[C@]4(C)C(=CC[C@@H]5[C@@]6(C)CC[C@H](O[C@@H]7O[C@H](CO[C@@H]8O[C@H](C)[C@H](O)[C@H](O)[C@H]8O[C@@H]8OC[C@@H](O)[C@H](O)[C@H]8O)[C@@H](O)[C@H](O)[C@H]7NC(C)=O)C(C)(C)[C@@H]6CC[C@]54C)[C@@H]3CC2(C)C)O[C@@H]1C` [avicin G], the “induction of cell cytotoxicity” value in the data set with cell cytotoxicity is recorded as “significant activity”.
